In data set [1] the target is Transient receptor potential cation channel subfamily A member 1 (Rattus norvegicus, UniProt Q6RI86). Kind of data set: Agonist activity at rat TRPA1 channel expressed in HEK293 cells assessed as calcium influx measured at every 1 second for 60 seconds by fluorescence analysis. It is filed as functional, cell-based.
Data set [2] has as its target Transient receptor potential cation channel subfamily A member 1 (Homo sapiens, UniProt O75762). Description: Agonist activity at human TRPA1 channel expressed in HEK293 cells assessed as calcium influx measured at every 1 second for 60 seconds by fluorescence analysis. It is filed as functional, cell-based.
Data set [3] is filed under the species Mus musculus. Description: Antinociceptive activity against formalin-induced inflammatory pain in Trpa1-knock out CD1 mouse assessed as increase in time spent in paw licking at 30 nmol, intraplantar measured every 5 mins for 60 mins. The class given is functional, organism-based.
The target in data set [4] is Transient receptor potential cation channel subfamily V member 4 (Homo sapiens) (UniProt Q9HBA0). Kind of data set: Agonist activity at human TRPV4 receptor. The class given is functional.
Data set [5] is described as follows: Inhibition of chloride channel at 1.5 uM.
The target in data set [6] is Transient receptor potential cation channel subfamily M member 8 (Homo sapiens) (UniProt Q7Z2W7). Kind of data set: Agonist activity at human TRPM8 receptor. The class given is functional.
The nature of data set [7]: Aqueous solubility of the compound at pH 7.4. It is filed as physicochemical.
Data set [8] addresses Transient receptor potential cation channel subfamily V member 4 (Homo sapiens) (UniProt Q9HBA0). Kind of data set: Antagonist activity at human TRPV4 receptor. It is filed as functional.
For data set [9], the target named is Sodium-dependent dopamine transporter (Homo sapiens) (UniProt Q01959). Kind of data set: Inhibition of dopamine transporter at 1.6 uM.
Data set [10] addresses Transient receptor potential cation channel subfamily V member 1 (Homo sapiens) (UniProt Q8NER1). Kind of data set: Antagonist activity at human TRPV1 receptor. The class given is functional.
Data set [11] has as its target Sodium-dependent noradrenaline transporter (Homo sapiens) (UniProt P23975). Description: Inhibition of noradrenaline transporter at 2.8 uM.
The species entered for data set [12] is Mus musculus. Kind of data set: Antinociceptive activity against formalin-induced inflammatory pain in Trpa1-positive CD1 mouse assessed as increase in time spent in paw licking at 30 nmol, intraplantar measured every 5 mins for 60 mins. It is filed as functional, organism-based.
Data set [13] concerns the target Transient receptor potential cation channel subfamily M member 8 (Homo sapiens) (UniProt Q7Z2W7). Kind of data set: Antagonist activity at human TRPM8 receptor. It is filed as functional.
In data set [14] the target is Transient receptor potential cation channel subfamily V member 1 (Homo sapiens) (UniProt Q8NER1). Description: Agonist activity at human TRPV1 receptor. The class given is functional.
The target of data set [15] is D(3) dopamine receptor (Homo sapiens) (UniProt P35462). Kind of data set: Inhibition of dopamine D3 receptor at 1.9 uM.
Data set [16] can be described thus: Inhibition of sigma receptor at 1.1 uM.
Data set [17] relates to Mus musculus. Kind of data set: Antinociceptive activity against formalin-induced inflammatory pain in Trpa1-positive CD1 mouse assessed as increase in time spent in paw licking at 30 nmol, intraplantar measured every 5 mins for 60 mins in pretreated with 100 mg/kg Trpa1 antagonist HC003031. The class given is functional, organism-based. Further details: dose 100 mg/kg.

The target in data set [18] is Transient receptor potential cation channel subfamily A member 1 (Rattus norvegicus) (UniProt Q6RI86). Kind of data set: Agonist activity at rat TRPA1 channel expressed in HEK293 cells assessed as calcium influx at 10 uM measured at every 1 second for 60 seconds by fluorescence analysis. The class given is functional, cell-based.

The EC50 is the concentration needed to bring the measured effect to its halfway point. Broadly, the inhibition is the relative decrease from the control value, in per cent. In general, solubility refers to the concentration that dissolves in the medium under given conditions.

In brackets after ≈: the same amount, converted by molar mass. Activity calls are given as the source filed them. The rule behind the calls is not given here.

Transient receptor potential cation channel subfamily A member 1 (Homo sapiens, UniProt O75762), sequence (O75762 whole entry): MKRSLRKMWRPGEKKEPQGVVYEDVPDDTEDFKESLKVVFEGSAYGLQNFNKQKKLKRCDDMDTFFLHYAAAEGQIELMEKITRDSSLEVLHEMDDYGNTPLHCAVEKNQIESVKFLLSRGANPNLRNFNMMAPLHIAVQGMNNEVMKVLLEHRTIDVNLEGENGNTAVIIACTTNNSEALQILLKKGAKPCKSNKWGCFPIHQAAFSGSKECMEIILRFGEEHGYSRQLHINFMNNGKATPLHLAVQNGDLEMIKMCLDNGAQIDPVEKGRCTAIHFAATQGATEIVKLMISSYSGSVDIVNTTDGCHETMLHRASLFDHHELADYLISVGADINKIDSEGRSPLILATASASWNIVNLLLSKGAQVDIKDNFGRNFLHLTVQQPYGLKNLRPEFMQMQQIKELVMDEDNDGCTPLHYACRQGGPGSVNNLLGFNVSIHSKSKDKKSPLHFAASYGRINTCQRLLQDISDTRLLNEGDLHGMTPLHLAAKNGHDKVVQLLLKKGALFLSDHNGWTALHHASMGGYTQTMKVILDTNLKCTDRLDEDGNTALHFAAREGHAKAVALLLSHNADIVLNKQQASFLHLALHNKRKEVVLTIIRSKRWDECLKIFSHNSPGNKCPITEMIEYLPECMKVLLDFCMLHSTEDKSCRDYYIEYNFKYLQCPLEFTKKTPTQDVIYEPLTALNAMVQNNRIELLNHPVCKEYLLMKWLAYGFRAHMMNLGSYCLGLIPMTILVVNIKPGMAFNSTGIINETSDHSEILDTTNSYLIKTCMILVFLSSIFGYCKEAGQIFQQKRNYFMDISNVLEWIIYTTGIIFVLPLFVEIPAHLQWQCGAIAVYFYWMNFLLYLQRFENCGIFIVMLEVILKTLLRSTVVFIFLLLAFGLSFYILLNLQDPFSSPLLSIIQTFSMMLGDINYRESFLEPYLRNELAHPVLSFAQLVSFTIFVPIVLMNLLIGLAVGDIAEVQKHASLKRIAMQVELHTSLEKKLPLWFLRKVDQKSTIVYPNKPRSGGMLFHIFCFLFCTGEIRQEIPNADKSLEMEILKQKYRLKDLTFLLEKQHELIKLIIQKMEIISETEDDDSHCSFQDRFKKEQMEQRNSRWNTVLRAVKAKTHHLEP
Transient receptor potential cation channel subfamily A member 1 (Rattus norvegicus, UniProt Q6RI86), sequence (Q6RI86 whole entry): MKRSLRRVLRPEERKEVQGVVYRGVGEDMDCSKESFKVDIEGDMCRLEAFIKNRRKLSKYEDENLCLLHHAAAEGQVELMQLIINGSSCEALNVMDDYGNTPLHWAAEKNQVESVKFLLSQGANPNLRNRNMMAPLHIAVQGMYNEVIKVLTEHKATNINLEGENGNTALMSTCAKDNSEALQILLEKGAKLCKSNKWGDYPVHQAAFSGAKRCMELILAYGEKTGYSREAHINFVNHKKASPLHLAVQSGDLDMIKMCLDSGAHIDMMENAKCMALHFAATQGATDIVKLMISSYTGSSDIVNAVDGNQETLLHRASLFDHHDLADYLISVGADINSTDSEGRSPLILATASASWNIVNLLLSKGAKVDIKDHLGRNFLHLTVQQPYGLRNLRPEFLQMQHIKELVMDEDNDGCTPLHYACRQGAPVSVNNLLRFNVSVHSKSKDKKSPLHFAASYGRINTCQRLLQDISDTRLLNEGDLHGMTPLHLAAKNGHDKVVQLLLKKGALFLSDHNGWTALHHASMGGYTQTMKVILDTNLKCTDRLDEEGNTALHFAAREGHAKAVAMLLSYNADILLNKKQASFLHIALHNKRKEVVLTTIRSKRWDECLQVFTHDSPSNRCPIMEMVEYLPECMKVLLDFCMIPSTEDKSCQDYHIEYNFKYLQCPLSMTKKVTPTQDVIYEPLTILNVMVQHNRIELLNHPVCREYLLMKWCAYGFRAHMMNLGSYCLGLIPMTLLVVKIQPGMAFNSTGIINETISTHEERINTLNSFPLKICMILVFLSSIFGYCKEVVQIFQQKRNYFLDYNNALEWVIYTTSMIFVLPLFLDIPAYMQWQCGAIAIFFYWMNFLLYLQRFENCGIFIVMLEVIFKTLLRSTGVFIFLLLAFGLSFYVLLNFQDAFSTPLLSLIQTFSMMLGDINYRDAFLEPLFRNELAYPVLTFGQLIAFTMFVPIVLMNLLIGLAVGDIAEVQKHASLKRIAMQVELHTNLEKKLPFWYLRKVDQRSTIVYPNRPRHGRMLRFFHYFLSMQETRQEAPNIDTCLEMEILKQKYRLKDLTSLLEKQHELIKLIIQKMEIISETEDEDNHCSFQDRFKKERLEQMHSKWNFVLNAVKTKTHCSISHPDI
Transient receptor potential cation channel subfamily V member 1 (Homo sapiens), sequence (Q8NER1 whole entry): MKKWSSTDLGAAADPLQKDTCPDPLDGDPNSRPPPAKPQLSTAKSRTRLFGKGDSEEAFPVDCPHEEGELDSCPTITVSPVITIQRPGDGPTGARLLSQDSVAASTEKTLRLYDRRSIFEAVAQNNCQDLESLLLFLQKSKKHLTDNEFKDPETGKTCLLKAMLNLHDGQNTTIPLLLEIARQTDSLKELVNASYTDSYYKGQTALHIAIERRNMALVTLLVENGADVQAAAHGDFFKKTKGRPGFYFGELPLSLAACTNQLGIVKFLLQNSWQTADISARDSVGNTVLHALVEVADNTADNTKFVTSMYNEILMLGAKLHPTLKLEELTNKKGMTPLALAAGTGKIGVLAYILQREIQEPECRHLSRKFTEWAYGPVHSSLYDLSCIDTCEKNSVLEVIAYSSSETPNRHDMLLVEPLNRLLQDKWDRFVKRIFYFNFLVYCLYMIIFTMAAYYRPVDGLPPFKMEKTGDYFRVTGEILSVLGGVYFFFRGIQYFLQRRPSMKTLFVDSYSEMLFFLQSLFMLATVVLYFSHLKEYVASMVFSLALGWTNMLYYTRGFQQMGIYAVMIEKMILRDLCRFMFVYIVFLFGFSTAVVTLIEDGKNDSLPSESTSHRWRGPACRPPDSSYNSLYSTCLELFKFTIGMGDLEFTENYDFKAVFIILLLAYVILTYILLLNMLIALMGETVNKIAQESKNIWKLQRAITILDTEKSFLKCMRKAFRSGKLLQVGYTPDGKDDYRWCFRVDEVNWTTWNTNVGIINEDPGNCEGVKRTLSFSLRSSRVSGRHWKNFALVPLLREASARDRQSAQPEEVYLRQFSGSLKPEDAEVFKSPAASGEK
Transient receptor potential cation channel subfamily V member 4 (Homo sapiens), sequence (Q9HBA0 whole entry): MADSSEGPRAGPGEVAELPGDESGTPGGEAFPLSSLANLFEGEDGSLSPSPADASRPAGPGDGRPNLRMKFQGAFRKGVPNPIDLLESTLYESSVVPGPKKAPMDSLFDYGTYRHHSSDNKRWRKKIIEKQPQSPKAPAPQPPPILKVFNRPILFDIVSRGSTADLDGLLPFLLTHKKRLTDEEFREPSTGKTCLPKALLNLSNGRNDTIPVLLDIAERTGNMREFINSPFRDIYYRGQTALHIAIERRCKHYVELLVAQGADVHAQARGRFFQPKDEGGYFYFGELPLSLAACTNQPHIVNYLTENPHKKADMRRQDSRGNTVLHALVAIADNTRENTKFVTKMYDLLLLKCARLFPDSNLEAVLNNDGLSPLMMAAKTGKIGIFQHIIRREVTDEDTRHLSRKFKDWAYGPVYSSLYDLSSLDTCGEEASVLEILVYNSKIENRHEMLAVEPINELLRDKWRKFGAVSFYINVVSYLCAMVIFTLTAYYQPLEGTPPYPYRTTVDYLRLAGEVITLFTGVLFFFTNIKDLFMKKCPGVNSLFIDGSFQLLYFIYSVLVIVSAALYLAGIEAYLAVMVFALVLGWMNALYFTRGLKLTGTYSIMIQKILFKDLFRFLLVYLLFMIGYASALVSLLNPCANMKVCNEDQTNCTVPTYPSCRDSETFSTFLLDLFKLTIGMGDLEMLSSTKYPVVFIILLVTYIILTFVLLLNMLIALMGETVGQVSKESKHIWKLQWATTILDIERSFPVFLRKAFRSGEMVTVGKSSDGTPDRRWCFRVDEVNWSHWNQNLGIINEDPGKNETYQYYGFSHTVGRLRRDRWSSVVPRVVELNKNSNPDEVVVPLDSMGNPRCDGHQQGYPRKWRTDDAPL
Transient receptor potential cation channel subfamily M member 8 (Homo sapiens), sequence (Q7Z2W7 whole entry, looked up): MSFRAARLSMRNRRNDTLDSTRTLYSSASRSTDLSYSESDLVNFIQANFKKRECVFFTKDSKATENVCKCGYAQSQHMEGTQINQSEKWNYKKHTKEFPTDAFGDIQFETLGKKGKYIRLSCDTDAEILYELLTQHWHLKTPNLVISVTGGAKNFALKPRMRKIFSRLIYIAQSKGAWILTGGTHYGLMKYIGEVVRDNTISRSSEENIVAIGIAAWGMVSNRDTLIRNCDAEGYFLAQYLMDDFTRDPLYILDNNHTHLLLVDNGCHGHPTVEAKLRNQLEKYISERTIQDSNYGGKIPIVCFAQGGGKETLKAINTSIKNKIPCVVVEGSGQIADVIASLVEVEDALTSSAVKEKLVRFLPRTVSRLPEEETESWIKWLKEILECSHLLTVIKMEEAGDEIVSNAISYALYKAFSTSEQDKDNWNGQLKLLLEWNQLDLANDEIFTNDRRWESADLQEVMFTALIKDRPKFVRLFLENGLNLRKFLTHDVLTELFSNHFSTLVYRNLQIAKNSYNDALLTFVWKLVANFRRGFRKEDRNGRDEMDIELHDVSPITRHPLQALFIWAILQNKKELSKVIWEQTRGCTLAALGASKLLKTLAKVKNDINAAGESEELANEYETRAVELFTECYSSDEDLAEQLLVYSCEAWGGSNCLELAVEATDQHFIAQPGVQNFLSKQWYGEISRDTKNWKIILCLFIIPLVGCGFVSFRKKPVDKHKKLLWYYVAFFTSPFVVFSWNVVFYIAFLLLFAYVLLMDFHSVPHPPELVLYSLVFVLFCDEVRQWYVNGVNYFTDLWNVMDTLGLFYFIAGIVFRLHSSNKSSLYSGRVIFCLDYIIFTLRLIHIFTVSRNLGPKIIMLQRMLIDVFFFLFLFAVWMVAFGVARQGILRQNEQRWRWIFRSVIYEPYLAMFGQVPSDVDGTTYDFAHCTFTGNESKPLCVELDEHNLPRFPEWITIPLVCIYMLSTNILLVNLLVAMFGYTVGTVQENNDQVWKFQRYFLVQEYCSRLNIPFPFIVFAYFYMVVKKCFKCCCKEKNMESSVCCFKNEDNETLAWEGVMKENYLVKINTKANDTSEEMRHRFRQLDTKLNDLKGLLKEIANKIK
Transient receptor potential cation channel subfamily A member 1 (Rattus norvegicus), sequence (Q6RI86 whole entry): as the sequence (Q6RI86 whole entry) above

`O=C(NCc1ccccc1)c1cnc(N2CCN(Cc3ccccc3)CC2)nc1NC1CC1`: the figures for the EC50 in data set [1] and in [2] (hek293) were 468 nM and “Not Active”, respectively.
Take `O=C(NCc1ccccc1)c1cnc(N2CCN(C(=O)c3c(F)cccc3F)CC2)nc1NC1CC1`: the concentration giving a half-maximal response (EC50) in data set [1] was determined as 186 nM; in [2] (read-out: EC50) it was 27 nM.
In the case of `CC(C)CNc1nc(N2CCN(Cc3ccccc3)CC2)ncc1C(=O)NCc1cccnc1`, the EC50 came out at 215 nM in [1] and 49 nM in data set [2] (read-out: EC50).
Consider `CC(C)CNc1nc(N2CCN(CC3CCCOC3)CC2)ncc1C(=O)NCc1ccccc1` (stereo not given), for which the result (in the data set filed under Mus musculus [3]; in data set [4]; in [6]; in data set [8]; in data set [10]; in data set [13]) was inactive. Besides, the outcome (in [14]; with Mus musculus [17]) was inactive. The inhibition in data set [5], in data set [9], in data set [11], in data set [15] and in [16] was < 10% throughout. For the same compound, the values for the EC50 in data set [1] and in [2] (read-out: EC50) were 97 nM and 23 nM, respectively. The compound also had a solubility in data set [7] of 6.4 µM (≈ 2.99 µg/mL). Further, the result in the data set listed under Mus musculus [12] was Active.
Turning to `O=C(NCc1ccccc1)c1cnc(N2CCN(C(=O)c3ccccc3)CC2)nc1NC1CC1`, the EC50 in data set [1] was 5600 nM; in [2] (hek293), “Not Active”.
With `CC(C)CNc1nc(N2CCN(Cc3ccccc3)CC2)ncc1C(=O)NCc1ccccn1`, the 50% effective concentration (EC50) in data set [1] was 2250 nM; in data set [2] (hek293), “Not Active”.
Consider `CC(C)CNc1nc(N2CCN(Cc3ccccc3)CC2)ncc1C(=O)NCc1ccccc1`, for which the EC50 in data set [1] was determined as 175 nM; in [2] (read-out: EC50), 79 nM.
For the compound `COCCNC(=O)c1cnc(N2CCN(Cc3ccccc3)CC2)nc1NCC(C)C`, the EC50 in data set [1] was 581 nM; in data set [2] (hek293), “Not Active”.
On to `O=C(NCc1ccccc1)c1cnc(N2CCN(CC3CCCOC3)CC2)nc1NC1CC1` (stereo not given), for which the EC50 was determined as 848 nM in data set [1] and 109 nM in data set [2] (read-out: EC50).
As for `CCCCN1CCN(c2ncc(C(=O)NCc3ccccc3)c(NC3CC3)n2)CC1`, in data set [18], the activation was 30%. For the same compound, the EC50 result in data set [2] (hek293) was “Not Active”.

Source of the values: ChEMBL document CHEMBL1817669, “Design and pharmacological evaluation of PF-4840154, a non-electrophilic reference agonist of the TrpA1 channel” (Bioorg Med Chem Lett, 2011).
